Test results from publication PMC7176092, “Development of the first in vivo GPR17 ligand through an iterative drug discovery pipeline: A novel disease-modifying strategy for multiple sclerosis” (PLoS ONE, 2020).
Marks after values point to notes of the source that are not given here.

Experiments:
[1] = molecular target: T1, M5 (Homo sapiens, UniProt P08912); assay: Binding assay M5; conditions: reference compound
T1 construct: Eurofins Cerep (external service)
T1 sequence (P08912 1-532): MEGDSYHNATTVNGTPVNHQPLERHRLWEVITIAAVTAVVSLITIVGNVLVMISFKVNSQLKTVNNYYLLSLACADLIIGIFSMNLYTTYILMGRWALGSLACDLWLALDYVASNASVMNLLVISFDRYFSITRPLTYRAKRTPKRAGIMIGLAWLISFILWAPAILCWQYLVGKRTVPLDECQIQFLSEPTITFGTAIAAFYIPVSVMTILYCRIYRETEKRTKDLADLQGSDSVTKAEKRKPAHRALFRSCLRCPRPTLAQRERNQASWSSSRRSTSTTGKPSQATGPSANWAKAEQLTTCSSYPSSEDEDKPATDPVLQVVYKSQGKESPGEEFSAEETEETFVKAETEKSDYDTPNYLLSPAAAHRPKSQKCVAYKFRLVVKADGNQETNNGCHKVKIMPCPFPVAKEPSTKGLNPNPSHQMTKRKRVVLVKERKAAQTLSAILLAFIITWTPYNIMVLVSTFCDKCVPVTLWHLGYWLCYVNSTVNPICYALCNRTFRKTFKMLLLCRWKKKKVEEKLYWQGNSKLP

[2] = molecular target: T2, human GPR17 (Homo sapiens, UniProt Q13304); assay: [35S]GTPγS binding assay; assay type: biochemical; conditions: for EC50: membranes of 1321N1 cells transfected with human GPR17, mean ± SEM of 3 experiments
T2 construct: HA; expressed in transfected cells
Protocol: [^35S]GTPγS binding assays were carried out as previously described. Briefly, control and astrocytoma 1321N1 cells stably transfected with human pcDNA3.1 (control cells) and human HA-tag GPR17 were homogenized in 5 mM Tris/HCl and 2 mM EDTA (pH 7.4) and centrifuged at 48,000g for 15 min at 4°C. The resulting pellets were washed in 50 mM Tris/HCl and 10 mM MgCl2 (pH 7.4). After protein dosage, aliquots of cell membranes were incubated with increasing concentrations of each investigated ligand (1 pM–10 μM) and GTPγS binding to activated G-proteins was quantified as previously described. Compounds were purchased from two external providers, i.e., Ambinter (Ambinter c/o Greenpharma, Orléans, France http://www.ambinter.com/) and Asinex (http://www.asinex.com/).
For analysis and graphic presentation of [^35S]GTPγS binding data, a nonlinear multipurpose curve fitting computer program (Graph-Pad Prism) was used. All data are presented as the mean ± SEM of three different experiments.
The selected 15 molecules were evaluated in our in-house [^35S]GTPγS functional assay in membranes from cells transfected with human GPR17. […] Moreover, this assay has been already successfully used in the past to measure the ability of both endogenous and novel synthetic compounds to activate GPR17 [25, 31]. All tested molecules were able to potently activate GPR17 with nanomolar/sub-nanomolar affinities. Concentration-response curves obtained for each selected compound are reported in S4 Fig.

[3] = molecular target: T3, CCR3 (Homo sapiens, UniProt P51677); assay: Cellular functional assay CCR3
T3 sequence (P51677 1-355): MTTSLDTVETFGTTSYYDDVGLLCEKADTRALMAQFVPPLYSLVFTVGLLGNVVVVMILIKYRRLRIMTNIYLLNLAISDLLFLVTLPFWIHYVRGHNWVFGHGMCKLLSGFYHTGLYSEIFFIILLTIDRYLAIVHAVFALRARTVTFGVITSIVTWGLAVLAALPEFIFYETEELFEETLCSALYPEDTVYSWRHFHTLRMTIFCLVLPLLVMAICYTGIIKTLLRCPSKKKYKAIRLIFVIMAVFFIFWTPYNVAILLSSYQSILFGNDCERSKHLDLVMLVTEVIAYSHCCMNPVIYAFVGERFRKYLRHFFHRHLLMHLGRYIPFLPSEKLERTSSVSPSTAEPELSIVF

[4] = molecular target: T4, mGluR5 (Homo sapiens, UniProt P41594); assay: Binding assay mGluR5; conditions: reference compound
T4 construct: Eurofins Cerep (external service)

[5] = molecular target: T5, CXCR2 (Homo sapiens, UniProt P25025); assay: Binding assay CXCR2; conditions: reference compound
T5 construct: Eurofins Cerep (external service)
T5 sequence (P25025 1-360): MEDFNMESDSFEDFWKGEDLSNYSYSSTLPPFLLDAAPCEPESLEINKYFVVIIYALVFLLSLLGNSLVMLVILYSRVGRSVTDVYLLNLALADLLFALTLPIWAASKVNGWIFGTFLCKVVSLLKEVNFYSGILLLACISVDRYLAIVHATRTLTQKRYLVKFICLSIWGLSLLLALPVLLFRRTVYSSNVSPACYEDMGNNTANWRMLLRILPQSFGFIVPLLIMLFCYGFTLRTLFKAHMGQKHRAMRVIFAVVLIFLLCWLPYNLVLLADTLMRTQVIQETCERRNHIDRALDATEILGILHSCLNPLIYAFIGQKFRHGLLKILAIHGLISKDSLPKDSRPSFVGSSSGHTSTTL

[6] = molecular target: T6, CCR2 (Homo sapiens, UniProt P41597); assay: Binding assay CCR2; conditions: reference compound
T6 construct: Eurofins Cerep (external service)

[7] = molecular target: P2Y; assay: Binding assay P2Y; set-up: species or system human; conditions: reference compound
[8] = molecular target: T7, CXCR1 (Homo sapiens, UniProt P25024); assay: Cellular functional assay CXCR1; conditions: reference agonist
T7 sequence (P25024 1-350): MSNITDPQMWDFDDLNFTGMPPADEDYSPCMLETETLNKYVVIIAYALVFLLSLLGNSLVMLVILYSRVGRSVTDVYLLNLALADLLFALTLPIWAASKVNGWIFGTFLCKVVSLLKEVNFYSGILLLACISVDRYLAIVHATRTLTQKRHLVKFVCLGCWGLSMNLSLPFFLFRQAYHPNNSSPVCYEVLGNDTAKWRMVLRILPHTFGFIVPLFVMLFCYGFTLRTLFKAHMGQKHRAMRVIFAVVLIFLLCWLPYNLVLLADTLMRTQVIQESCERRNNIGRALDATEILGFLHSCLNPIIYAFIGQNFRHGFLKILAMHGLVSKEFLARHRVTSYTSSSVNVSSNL

[9] = molecular target: T8, CX3CR1 (Homo sapiens, UniProt P49238); assay: Cellular functional assay CX3CR1; conditions: reference agonist
T8 sequence (P49238 1-355): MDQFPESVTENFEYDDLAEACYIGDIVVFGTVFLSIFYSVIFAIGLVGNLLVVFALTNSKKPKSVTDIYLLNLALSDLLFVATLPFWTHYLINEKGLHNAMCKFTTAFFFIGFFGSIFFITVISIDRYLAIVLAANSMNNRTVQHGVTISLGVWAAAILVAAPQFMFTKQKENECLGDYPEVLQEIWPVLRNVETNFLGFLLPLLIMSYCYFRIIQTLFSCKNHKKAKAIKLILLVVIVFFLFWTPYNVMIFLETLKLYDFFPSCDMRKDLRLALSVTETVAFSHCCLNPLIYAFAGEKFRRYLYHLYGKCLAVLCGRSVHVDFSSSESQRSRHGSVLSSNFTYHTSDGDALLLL

[10] = standard LTD4 50 nM set to 100% († compounds)
[11] = standard LTC4 50 nM set to 100% (¶ compounds)

T2 sequence (Q13304 29-367): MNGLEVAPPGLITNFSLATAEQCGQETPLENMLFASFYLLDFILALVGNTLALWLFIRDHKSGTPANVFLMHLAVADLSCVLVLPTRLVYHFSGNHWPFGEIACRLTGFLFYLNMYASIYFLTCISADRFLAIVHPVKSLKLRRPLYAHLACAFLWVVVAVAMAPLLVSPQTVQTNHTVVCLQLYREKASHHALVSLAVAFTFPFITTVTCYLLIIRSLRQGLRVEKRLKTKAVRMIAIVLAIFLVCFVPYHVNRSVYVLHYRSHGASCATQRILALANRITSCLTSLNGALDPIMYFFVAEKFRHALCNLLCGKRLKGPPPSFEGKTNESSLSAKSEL
T6 sequence (P41597 whole entry): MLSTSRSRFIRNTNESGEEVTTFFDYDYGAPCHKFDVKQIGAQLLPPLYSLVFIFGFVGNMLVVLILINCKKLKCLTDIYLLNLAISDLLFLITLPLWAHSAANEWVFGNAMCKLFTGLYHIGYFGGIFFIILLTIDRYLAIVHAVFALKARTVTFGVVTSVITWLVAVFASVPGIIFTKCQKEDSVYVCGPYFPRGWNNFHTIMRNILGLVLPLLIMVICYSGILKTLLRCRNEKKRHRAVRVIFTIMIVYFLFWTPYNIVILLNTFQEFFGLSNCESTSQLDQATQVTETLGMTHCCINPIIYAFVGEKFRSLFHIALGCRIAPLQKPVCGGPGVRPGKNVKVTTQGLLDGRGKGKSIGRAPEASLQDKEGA
T4 sequence (P41594 21-1212): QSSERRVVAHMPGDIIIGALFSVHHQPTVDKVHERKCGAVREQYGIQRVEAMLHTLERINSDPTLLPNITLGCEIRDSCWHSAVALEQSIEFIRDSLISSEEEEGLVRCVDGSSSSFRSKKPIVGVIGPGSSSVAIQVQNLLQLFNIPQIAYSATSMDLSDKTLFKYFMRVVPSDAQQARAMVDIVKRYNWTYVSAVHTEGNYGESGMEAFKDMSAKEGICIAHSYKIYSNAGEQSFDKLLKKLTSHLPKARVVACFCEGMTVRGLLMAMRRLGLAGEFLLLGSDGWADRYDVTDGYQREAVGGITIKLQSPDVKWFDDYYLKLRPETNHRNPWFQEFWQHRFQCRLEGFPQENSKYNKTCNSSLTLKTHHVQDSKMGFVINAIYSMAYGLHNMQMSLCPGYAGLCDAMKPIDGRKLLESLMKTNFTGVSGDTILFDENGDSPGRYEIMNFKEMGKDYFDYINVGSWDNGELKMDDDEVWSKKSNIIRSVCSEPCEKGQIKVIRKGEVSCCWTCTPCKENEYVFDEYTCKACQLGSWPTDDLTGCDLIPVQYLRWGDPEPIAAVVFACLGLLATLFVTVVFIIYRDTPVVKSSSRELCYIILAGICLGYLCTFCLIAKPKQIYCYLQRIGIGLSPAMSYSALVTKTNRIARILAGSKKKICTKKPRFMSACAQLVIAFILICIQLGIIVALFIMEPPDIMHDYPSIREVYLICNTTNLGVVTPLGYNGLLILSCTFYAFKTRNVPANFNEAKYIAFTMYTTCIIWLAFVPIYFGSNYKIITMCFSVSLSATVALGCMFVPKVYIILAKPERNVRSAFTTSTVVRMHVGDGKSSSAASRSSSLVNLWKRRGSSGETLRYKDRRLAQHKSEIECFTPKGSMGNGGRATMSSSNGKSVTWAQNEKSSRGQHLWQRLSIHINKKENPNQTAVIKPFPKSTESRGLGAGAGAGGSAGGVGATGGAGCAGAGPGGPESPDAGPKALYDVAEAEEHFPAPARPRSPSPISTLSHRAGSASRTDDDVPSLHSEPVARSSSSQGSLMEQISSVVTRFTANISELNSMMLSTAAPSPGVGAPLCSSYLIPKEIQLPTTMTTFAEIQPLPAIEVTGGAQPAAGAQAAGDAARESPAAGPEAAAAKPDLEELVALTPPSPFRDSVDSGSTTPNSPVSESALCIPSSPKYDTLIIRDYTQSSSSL

| Molecule | EC50 [2] | Emax (% vs basal) ([2]; mean ± SEM) | % Emax (ratio vs Emax of the standard) [2, 11] | further results |
| --- | --- | --- | --- | --- |
| C[N+]1(C)CCC(OC(=O)C(c2ccccc2)c2ccccc2)CC1 [Compound 4-DAMP, 4-DAMP, reference compound] |  |  |  | IC50 [1]: 0.73 nM; Ki [1]: 0.37 nM |
| Cn1c(SCC(=O)Nc2ccc(Cl)cc2)nnc1-c1ccc(NC(=O)c2ccccc2)cc1 [Compound 4] | 0.43 ± 0.08 nM | 160.0 ± 10.6% |  | % Emax (ratio vs Emax of the standard) [2, 10]: 110.8% |
| CCc1ccccc1-n1c(SCC(=O)Nc2ccccc2Cl)nnc1-c1ccccc1O [Compound 6] | 0.52 ± 0.09 nM | 135.0 ± 10.2% |  | % Emax (ratio vs Emax of the standard) [2, 10]: 93.5 ^* % |
| Cc1cccc(-c2n[nH]c(SCC(=O)Nc3cccc4ccccc34)n2)c1 [Compound 7] | 0.48 ± 0.09 nM | 151.3 ± 6.7% |  | % Emax (ratio vs Emax of the standard) [2, 10]: 104.8% |
| Cc1nc2ccc(NC(=O)CSc3nnc(-c4ccccc4)[nH]3)cc2[nH]1 [Compound 8] | 0.24 ± 0.02 nM | 144.8 ± 6.4% |  | % Emax (ratio vs Emax of the standard) [2, 10]: 100.3% |
| Cc1cccc(-c2n[nH]c(SCC(=O)Nc3ccccc3)n2)c1 [Compound 10] | 0.24 ± 0.06 nM | 142.0 ± 5.8% |  | % Emax (ratio vs Emax of the standard) [2, 10]: 98.3% |
| COc1ccc(-n2c(SCC(=O)Nc3cc(C(C)(C)C)no3)nnc2-c2ccccc2OC)cc1 [Compound 11] | 22.5 ± 4.3 nM | 134.3 ± 8.8% | 95.3% |  |
| CCOc1ccc(-n2c(SCC(=O)Nc3ccc(Cl)c(C(F)(F)F)c3)nnc2-c2cccc(C)c2)cc1 [Compound 12] | 7.11 ± 1.96 nM | 127.7 ± 4.1% | 90.6 ^* % |  |
| CCOc1ccc(-n2c(SCC(=O)Nc3ccc4c(c3)OCCO4)nnc2-c2ccccc2Cl)cc1 [Compound 13] | 3.29 ± 0.28 nM | 141.3 ± 7.6% | 100.2% |  |
| COc1ccc(-c2nnc(SCC(=O)Nc3ncc(Cc4ccc(Cl)cc4)s3)n2-c2ccccc2)cc1OC [Compound 14] | 2.7 ± 0.4 nM | 139.3 ± 2.5% | 98.8% |  |
| COc1ccccc1-c1nnc(SCC(=O)Nc2ncc3c(n2)CCCC3=O)[nH]1 [Compound 15] | 2.9 ± 0.1 nM | 137.1 ± 1.3% | 97.23% |  |
| COc1ccccc1-c1nnc(SCC(=O)Nc2ncc3c(n2)CC(C)(C)CC3=O)[nH]1 [Compound 16] | 3.45 ± 0.5 nM | 139.6 ± 1.5% | 99.0% |  |
| COc1ccccc1-c1nnc(SCC(=O)Nc2nccs2)[nH]1 [Compound 17] | 8.48 ± 0.9 nM | 136.2 ± 0.5% | 96.6% |  |
| O=C(CSc1nnc2n(Cc3ccc(Cl)cc3)c3ccccc3n12)N1CCc2ccccc2C1 [Compound 19] | 9.5 ± 1.47 nM | 153.7 ± 1.1% | 108.5 ^* % |  |
| CC[N+]1(C/C2=C/CCCCCC2)CCC(NC(=O)C2c3cc(Cl)ccc3Oc3ccc(Cl)cc32)CC1 (stereo not shown) [Compound J113863, J113863, reference compound] |  |  |  | IC50 ([3]; reference antagonist): 8.9 nM |
| N[C@@H](Cn1oc(=O)[nH]c1=O)C(=O)O [L-Quisqualate, reference compound] |  |  |  | IC50 [4]: 67 nM; Ki [4]: 14 nM |
| CCCCC/C=C\C\C=C/C=C/C=C/[C@@H](SC[C@H](NC(=O)CC[C@H](N)C(=O)O)C(=O)NCC(=O)O)[C@@H](O)CCCC(=O)O [LTC4, reference compound] |  |  |  | Emax (% vs basal) ([2]; reference agonist at 50 nM): 141.0 ± 3.9% |
| CCCCC/C=C\C\C=C/C=C/C=C/[C@@H](SC[C@H](N)C(=O)NCC(=O)O)[C@@H](O)CCCC(=O)O [LTD4, reference compound] |  |  |  | Emax (% vs basal) ([2]; reference agonist at 50 nM): 144.4 ± 7.1% |
| IL-8: chemokine, reference compound for CXCR2 binding |  |  |  | IC50 [5]: 0.26 nM; Ki [5]: 0.12 nM |
| MCP-1: chemokine, reference compound for CCR2 binding |  |  |  | IC50 [6]: 0.072 nM; Ki [6]: 0.029 nM |
| dATPS [reference compound] |  |  |  | IC50 [7]: 51 nM; Ki [7]: 25 nM |
| rhIL-8: recombinant chemokine, reference agonist for CXCR1 |  |  |  | EC50 [8]: 4.7 nM |
| eotaxin 2: chemokine, reference agonist for CCR3 (protein, UniProt O00175 27-119, looked up) C-C motif chemokine 24: VVIPSPCCMFFVSKRIPENRVVSYQLSSRSTCLKAGVIFTTKKGQQFCGDPKQEWVQRYMKNLDAKQKKASPRARAVAVKGPVQRYPGNQTTC |  |  |  | EC50 ([3]; reference agonist): 6.4 nM |
| CX3CL1: chemokine, reference agonist for CX3CR1 (protein, UniProt P78423 25-397, looked up) Fractalkine: QHHGVTKCNITCSKMTSKIPVALLIHYQQNQASCGKRAIILETRQHRLFCADPKEQWVKDAMQHLDRQAAALTRNGGTFEKQIGEVKPRTTPAAGGMDESVVLEPEATGESSSLEPTPSSQEAQRALGTSPELPTGVTGSSGTRLPPTPKAQDGGPVGTELFRVPPVSTAATWQSSAPHQPGPSLWAEAKTSEAPSTQDPSTQASTASSPAPEENAPSEGQRVWGQGQSPRPENSLEREEMGPVPAHTDAFQDWGPGSMAHVSVVPVSSEGTPSREPVASGSWTPKAEEPIHATMDPQRLGVLITPVPDAQAATRRQAVGLLAFLGLLFCLGVAMFTYQSLQGCPRKMAGEMAEGLRYIPRSCGSNSYVLVPV |  |  |  | EC50 [9]: 2.2 nM |
